Patent publication US11051515B2, “3-acyl-benzamides and their use as herbicides” (Bayer Aktiengesellschaft, priority 2017, dated 2021)

Columns and labels:
ECHCG [1] = assay: Pre-emergence action against ECHCG; format: in vivo, Echinochloa crus-galli; conditions: for pest or weed control at 320 g/ha: Echinochloa crus-galli, 504 h, pre-emergence, dosage 320 g/ha, scored visually after 3 weeks vs untreated controls, read-out: Pre-emergence action against ECHCG (herbicidal activity); for Herbicidal efficacy against ECHCG: Table V3, pre-emergence, 80 g of a.i./ha
Procedure, shortened: (§1)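 Seeds sown in sandy loam in wood-fiber pots and covered with soil. Greenhouse growth; visual damage scored after 3 weeks versus untreated controls (100% = dead, 0% = like control).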

PHBPU = assay: Post-emergence action against PHBPU; format: in vivo, Pharbitis purpurea; conditions: for pest or weed control at 80 g/ha: Ipomoea purpurea, 504 h, post-emergence, dosage 80 g/ha
Procedure, shortened: (§2)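 Post-emergence foliar spray on greenhouse plants at the one-leaf stage, using wettable-powder or emulsion-concentrate formulations in water (600 to […], plus 0.2% wetting agent). Damage scored by eye roughly 3 weeks later against untreated plants: 0% = like control, 100% = dead.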

ABUTH [2] = assay: Post-emergence action against ABUTH; format: in vivo, Abutilon theophrasti; conditions: Abutilon theophrasti, 504 h; post-emergence, dosage 80 g/ha, visual assessment about 3 weeks after treatment vs untreated controls; read-out: Post-emergence action against ABUTH (herbicidal action in percent)
Procedure, shortened: as §2

CYPES [3] = assay: Pre-emergence action against CYPES; format: in vivo, Cyperus esculentus; conditions: for pest or weed control at 320 g/ha: Cyperus esculentus, 504 h, pre-emergence, dosage 320 g/ha, scored visually after 3 weeks vs untreated controls, read-out: Pre-emergence action against CYPES (herbicidal activity); for Herbicidal efficacy against CYPES: 80 g of a.i./ha
Procedure, shortened: as §1

MATIN [4] = assay: Post-emergence action against MATIN; format: in vivo, Matricaria inodora; conditions: for pest or weed control at 80 g/ha: Tripleurospermum inodorum, 504 h, post-emergence, dosage 80 g/ha, visual assessment about 3 weeks after treatment vs untreated controls, read-out: Post-emergence action against MATIN (herbicidal action in percent)
Procedure, shortened: as §2

STEME [5] = assay: Pre-emergence action against STEME; format: in vivo, Stellaria media; conditions: for pest or weed control at 320 g/ha: Stellaria media, 504 h, Dosage 320 g/ha, pre-emergence
Procedure, shortened: as §1

ECHCG [6] = assay: Post-emergence action against ECHCG; format: in vivo, Echinochloa crus-galli; conditions: for pest or weed control at 80 g/ha: Echinochloa crus-galli, 504 h, post-emergence, dosage 80 g/ha, visual assessment about 3 weeks after treatment vs untreated controls, read-out: Post-emergence action against ECHCG (herbicidal action in percent); for Herbicidal efficacy against ECHCG: Table V16, post-emergence
Procedure, shortened: as §2

SETVI = assay: Post-emergence action against SETVI; format: in vivo, Setaria viridis; conditions: for pest or weed control at 80 g/ha: Setaria viridis, 504 h, post-emergence, dosage 80 g/ha, visual assessment about 3 weeks after treatment vs untreated controls, read-out: Post-emergence action against SETVI (herbicidal action in percent)
Procedure, shortened: as §2

MATIN [7] = assay: Pre-emergence action against MATIN; format: in vivo, Matricaria inodora; conditions: for pest or weed control at 320 g/ha: Tripleurospermum inodorum, 504 h, Dosage 320 g/ha, pre-emergence
Procedure, shortened: as §1

VIOTR [8] = assay: Pre-emergence action against VIOTR; format: in vivo, Viola tricolor; conditions: for pest or weed control at 320 g/ha: Viola tricolor, 504 h, Dosage 320 g/ha, pre-emergence
Procedure, shortened: as §1

AMARE = assay: Pre-emergence action against AMARE; format: in vivo, Amaranthus retroflexus; conditions: for pest or weed control at 320 g/ha: Amaranthus retroflexus, 504 h, pre-emergence, dosage 320 g/ha, scored visually after 3 weeks vs untreated controls, read-out: Pre-emergence action against AMARE (herbicidal activity); for Herbicidal efficacy against AMARE: Table V3, pre-emergence, 80 g of a.i./ha
Procedure, shortened: as §1

AVEFA [9] = assay: Pre-emergence action against AVEFA; format: in vivo, Avena fatua; conditions: Avena fatua, 504 h, dosage 320 g/ha, scored visually after 3 weeks vs untreated controls, read-out: Pre-emergence action against AVEFA (herbicidal activity)
Procedure, shortened: as §1

VIOTR [10] = assay: Post-emergence action against VIOTR; format: in vivo, Viola tricolor; conditions: for pest or weed control at 80 g/ha: Viola tricolor, 504 h, post-emergence, dosage 80 g/ha
Procedure, shortened: as §2

STEME [11] = assay: Post-emergence action against STEME; format: in vivo, Stellaria media; conditions: for pest or weed control at 80 g/ha: Stellaria media, 504 h, post-emergence, dosage 80 g/ha
Procedure, shortened: as §2

POLCO = assay: Pre-emergence action against POLCO; format: in vivo, Polygonum convolvulus; conditions: for Herbicidal efficacy against POLCO: 80 g of a.i./ha; for pest or weed control at 320 g/ha: Fallopia convolvulus, 504 h, Dosage 320 g/ha, pre-emergence
Procedure, shortened: as §1

ABUTH [12] = assay: Pre-emergence action against ABUTH; format: in vivo, Abutilon theophrasti; conditions: for pest or weed control at 320 g/ha: Abutilon theophrasti, 504 h, pre-emergence, dosage 320 g/ha, scored visually after 3 weeks vs untreated controls, read-out: Pre-emergence action against ABUTH (herbicidal activity)
Procedure, shortened: as §1

CYPES [13] = assay: Post-emergence action against CYPES; format: in vivo, Cyperus esculentus; conditions: for pest or weed control at 80 g/ha: Cyperus esculentus, 504 h, post-emergence, dosage 80 g/ha, visual assessment about 3 weeks after treatment vs untreated controls, read-out: Post-emergence action against CYPES (herbicidal action in percent)
Procedure, shortened: as §2

AVEFA [14] = assay: Post-emergence action against AVEFA; format: in vivo, Avena fatua; conditions: for pest or weed control at 80 g/ha: Avena fatua, 504 h, post-emergence, dosage 80 g/ha, visual assessment about 3 weeks after treatment vs untreated controls, read-out: Post-emergence action against AVEFA (herbicidal action in percent)
Procedure, shortened: as §2

[15] = Table V18, post-emergence, 20 g of a.i./ha
[16] = Table V17, post-emergence, 5 g of a.i./ha
[17] = Table V7, pre-emergence, 20 g of a.i./ha
[18] = Table V16, post-emergence, 5 g of a.i./ha
[19] = Table V16, post-emergence, 20 g of a.i./ha
[20] = Table V4, pre-emergence, 20 g of a.i./ha
[21] = Table V3, pre-emergence, 80 g of a.i./ha
[22] = Table V2, pre-emergence, 20 g of a.i./ha
[23] = Table V15, post-emergence, 5 g of a.i./ha

| SMILES | pest or weed control at 320 g/ha (ECHCG [1]) | pest or weed control at 80 g/ha (PHBPU) | pest or weed control at 80 g/ha (ABUTH [2]) | pest or weed control at 320 g/ha (CYPES [3]) | pest or weed control at 80 g/ha (MATIN [4]) | pest or weed control at 320 g/ha (STEME [5]) | pest or weed control at 80 g/ha (ECHCG [6]) | pest or weed control at 80 g/ha (SETVI) | pest or weed control at 320 g/ha (MATIN [7]) | pest or weed control at 320 g/ha (VIOTR [8]) | pest or weed control at 320 g/ha (AMARE) | pest or weed control at 320 g/ha (AVEFA [9]) | pest or weed control at 80 g/ha (VIOTR [10]) | pest or weed control at 80 g/ha (STEME [11]) | pest or weed control at 320 g/ha (ABUTH [12]) | pest or weed control at 80 g/ha (CYPES [13]) | pest or weed control at 80 g/ha (AVEFA [14]) | pest or weed control at 320 g/ha (POLCO) | Herbicidal efficacy against ECHCG (ECHCG [1]) | Herbicidal efficacy against CYPES (CYPES [3]; Table V3, pre-emergence) | also measured |
| --- | --- | --- | --- | --- | --- | --- | --- | --- | --- | --- | --- | --- | --- | --- | --- | --- | --- | --- | --- | --- | --- |
| Cc1c(C(=O)Nc2nnnn2C)ccc(S(C)(=O)=O)c1C(=O)C1CC1 [1-9] | 100% | 100% | 90% | 80% | 100% | 80% | 90% | 100% | 100% | 100% | 100% | 80% | 100% | 100% | 100% | 80% | 100% | – | – | – | Herbicidal efficacy against PHBPU (PHBPU; [15]): 100; Herbicidal efficacy against CYPES (CYPES [3]; Table V6, pre-emergence): 70; Herbicidal efficacy against MATIN (MATIN [4]; [16]): 100; Herbicidal efficacy against MATIN (MATIN [4]; [15]): 100; Herbicidal efficacy against SETVI (SETVI; [15]): 100; Herbicidal efficacy against MATIN (MATIN [7]; [17]): 90; Herbicidal efficacy against VIOTR (VIOTR [8]; [17]): 70; Herbicidal efficacy against VIOTR (VIOTR [8]; Table V9, pre-emergence, 80 g of a.i./ha): 100; Herbicidal efficacy against VIOTR (VIOTR [10]; [16]): 100; Herbicidal efficacy against STEME (STEME [11]; [15]): 100; Herbicidal efficacy against POLCO (POLCO; Table V6, pre-emergence): 40; Herbicidal efficacy against ABUTH (ABUTH [12]; [17]): 100; Herbicidal efficacy against CYPES (CYPES [13]; [15]): 70; Herbicidal efficacy against AVEFA (AVEFA [14]; [15]): 80 |
| CSc1c(C(=O)Nc2nnnn2C)ccc(C(F)(F)F)c1C(C)=O [1-58] | 100% | 100% | 100% | 100% | 100% | 100% | 100% | 100% | 100% | 100% | 100% | 100% | 100% | 100% | 100% | 90% | 100% | 100% | – | – | – |
| CC(=O)c1c(S(C)(=O)=O)ccc(C(=O)Nc2nnnn2C)c1Cl [1-127] | 100% | 100% | 90% | 90% | 100% | 90% | 100% | 80% | 100% | 100% | 100% | 90% | 100% | 90% | 100% | 80% | 80% | 90% | 100 | 90 | Herbicidal efficacy against PHBPU (PHBPU; [18]): 70; Herbicidal efficacy against PHBPU (PHBPU; [19]): 100; Herbicidal efficacy against CYPES (CYPES [3]; Table V1, pre-emergence): 90; Herbicidal efficacy against MATIN (MATIN [4]; Table V14, post-emergence, 5 g of a.i./ha): 90; Herbicidal efficacy against MATIN (MATIN [4]; [18]): 90; Herbicidal efficacy against MATIN (MATIN [4]; [19]): 100; Herbicidal efficacy against STEME (STEME [5]; [20]): 70; Herbicidal efficacy against ECHCG (ECHCG [6]; 5 g of a.i./ha): 100; Herbicidal efficacy against ECHCG (ECHCG [6]; 20 g of a.i./ha): 100; Herbicidal efficacy against MATIN (MATIN [7]; [21]): 90; Herbicidal efficacy against MATIN (MATIN [7]; [20]): 70; Herbicidal efficacy against VIOTR (VIOTR [8]; Table V1, pre-emergence, 80 g of a.i./ha): 100; Herbicidal efficacy against VIOTR (VIOTR [8]; [21]): 100; Herbicidal efficacy against AMARE (AMARE): 100; Herbicidal efficacy against VIOTR (VIOTR [10]; [18]): 100; Herbicidal efficacy against VIOTR (VIOTR [10]; [19]): 100; Herbicidal efficacy against POLCO (POLCO; Table V1, pre-emergence): 70; Herbicidal efficacy against ABUTH (ABUTH [12]; [21]): 100; Herbicidal efficacy against ABUTH (ABUTH [12]; [20]): 90 |
| Cn1nnnc1NC(=O)c1ccc(S(C)(=O)=O)c(C(=O)C2CC2)c1Cl [1-129] | 100% | 100% | 90% | 100% | 90% | 100% | 90% | 100% | 100% | 100% | 100% | 100% | 100% | 100% | 100% | 80% | 100% | 80% | 100 | 100 | ECHCG (ECHCG [1]; [22]): 90; Herbicidal efficacy against MATIN (MATIN [4]; [23]): 80; Herbicidal efficacy against SETVI (SETVI; [23]): 100; MATIN (MATIN [7]; [22]): 90; Herbicidal efficacy against MATIN (MATIN [7]; [21]): 100; Herbicidal efficacy against VIOTR (VIOTR [8]; [21]): 100; AMARE (AMARE; [22]): 90; Herbicidal efficacy against AMARE (AMARE): 100; Herbicidal efficacy against ABUTH (ABUTH [12]; [21]): 100; Herbicidal efficacy against CYPES (CYPES [13]; [23]): 60; Herbicidal efficacy against AVEFA (AVEFA [14]; [23]): 60 |
